Reference: ChEMBL document CHEMBL1155893 (J Med Chem, 2008)

Tests used:
Type in all cases: functional, organism-based
[1] = test system: Plasmodium falciparum; assay: Antimalarial activity against multidrug-resistant Plasmodium falciparum TM91C235
[2] = test system: Plasmodium falciparum; assay: Antimalarial activity against chloroquine,mefloquine-sensitive Plasmodium falciparum D6
[3] = test system: Plasmodium falciparum; assay: Antimalarial activity against chloroquine-resistant Plasmodium falciparum W2

Compound	IC50 [1] [µM]	IC90 [1] [µM]	IC50 [2] [µM]	IC90 [2] [µM]	IC50 [3] [µM]	IC90 [3] [µM]
CC(=O)O[C@@H]1CC[C@@]2(C)[C@@H](C1)C[C@@H](OC(C)=O)[C@@H]1[C@@H]2C[C@H](OC(C)=O)[C@]2(C)[C@@H]([C@H](C)CCC(=O)NCCNc3ccnc4cc(Cl)ccc34)CC[C@@H]12	0.0288	0.0348	0.019	0.0211	0.0489	0.0706
Clc1ccc2c(NCCCNCC34CC5CC(CC(C5)C3)C4)ccnc2c1	0.00739	0.0202	0.00383	0.00641	0.0121	0.0201
Clc1ccc2c(NCCCN(CCC34CC5CC(CC(C5)C3)C4)CCC34CC5CC(CC(C5)C3)C4)ccnc2c1	0.109	0.171	0.0522	0.0783	0.0832	0.132
Clc1ccc2c(NCCCNCCC34CC5CC(CC(C5)C3)C4)ccnc2c1	0.0421	0.171	0.0114	0.0233	0.0337	0.0561
Clc1ccc2c(NCCCCCNCCC34CC5CC(CC(C5)C3)C4)ccnc2c1	0.0672	0.168	0.0219	0.0248	0.16	0.311
Clc1ccc2c(NCCNCC34CC5CC(CC(C5)C3)C4)ccnc2c1	0.00873	0.0149	0.00426	0.00823	0.0084	0.0152
O[C@@H](c1cc(C(F)(F)F)nc2c(C(F)(F)F)cccc12)[C@H]1CCCCN1 [MEFLOQUINE]		0.106	0.0112	0.0281		0.0147
O=C(NCCCCCNc1ccnc2cc(Cl)ccc12)C12CC3CC(CC(C3)C1)C2	0.765	0.984	0.511	0.632	0.884	1.41
COC(=O)CC[C@@H](C)[C@H]1CC[C@H]2[C@@H]3[C@H](OC(C)=O)C[C@@H]4C[C@H](Nc5ccnc6cc(Cl)ccc56)CC[C@]4(C)[C@H]3C[C@H](OC(C)=O)[C@]12C	0.0301	0.0686	0.0106	0.0207	0.108	0.563
COC(=O)CC[C@@H](C)[C@H]1CC[C@H]2[C@@H]3[C@H](OC(C)=O)C[C@@H]4C[C@@H](NCCNc5ccnc6cc(Cl)ccc56)CC[C@]4(C)[C@H]3C[C@H](OC(C)=O)[C@]12C	0.011	0.025	0.00617	0.0104	0.00338	0.00674
COC(=O)CC[C@@H](C)[C@H]1CC[C@H]2[C@@H]3[C@H](OC(C)=O)C[C@@H]4C[C@H](NCCNc5ccnc6cc(Cl)ccc56)CC[C@]4(C)[C@H]3C[C@H](OC(C)=O)[C@]12C	0.0128	0.0244	0.00947	0.0123	0.00574	0.0112
CC(=O)O[C@@H]1CC[C@@]2(C)[C@@H](C1)C[C@@H](OC(C)=O)[C@@H]1[C@@H]2C[C@H](OC(C)=O)[C@]2(C)[C@@H]([C@H](C)CCC(=O)Nc3ccnc4cc(Cl)ccc34)CC[C@@H]12	3.51	6.06	3.02	6.92	7.19	
O=C(NCCNc1ccnc2cc(Cl)ccc12)C12CC3CC(CC(C3)C1)C2	0.439	0.685	0.202	0.465	0.485	0.724
COC(=O)CC[C@@H](C)[C@H]1CC[C@H]2[C@@H]3[C@H](OC(C)=O)C[C@@H]4C[C@H](OCCNc5ccnc6cc(Cl)ccc56)CC[C@]4(C)[C@H]3C[C@H](OC(C)=O)[C@]12C	0.0505	0.0728	0.033	0.0993	0.111	0.147
O=C(CC12CC3CC(CC(C3)C1)C2)NCCCCCNc1ccnc2cc(Cl)ccc12	0.602	0.777	0.267	0.347	0.518	0.66
CC(=O)O[C@@H]1CC[C@@]2(C)[C@@H](C1)C[C@@H](OC(C)=O)[C@@H]1[C@@H]2C[C@H](OC(C)=O)[C@]2(C)[C@@H]([C@H](C)CCCNCCNc3ccnc4cc(Cl)ccc34)CC[C@@H]12	0.0277	0.0779	0.0169	0.0342	0.0114	0.0325
Clc1ccc2c(NCCN(CCC34CC5CC(CC(C5)C3)C4)CCC34CC5CC(CC(C5)C3)C4)ccnc2c1	0.101	0.225	0.0519	0.07	0.0782	0.113
Clc1ccc2c(NCCNCCC34CC5CC(CC(C5)C3)C4)ccnc2c1	0.0178	0.0244	0.00859	0.0137	0.0157	0.031
O=C(CC12CC3CC(CC(C3)C1)C2)NCCCNc1ccnc2cc(Cl)ccc12	0.201	0.464	0.106	0.294	0.337	0.853
Clc1ccc2c(NCCCCCNCC34CC5CC(CC(C5)C3)C4)ccnc2c1	0.0753	0.161	0.0152	0.0189	0.131	0.168
COC(=O)CC[C@@H](C)[C@H]1CC[C@H]2[C@@H]3[C@H](OC(C)=O)C[C@@H]4C[C@H](OCCNCCNc5ccnc6cc(Cl)ccc56)CC[C@]4(C)[C@H]3C[C@H](OC(C)=O)[C@]12C	0.0322	0.076	0.0141	0.0228	0.0178	0.0246
C[C@@H]1CC[C@H]2[C@@H](C)C(=O)O[C@@H]3O[C@@]4(C)CC[C@@H]1[C@]32OO4 [ARTEMISININ]	0.013	0.0174	0.009	0.0128	0.0067	0.0115
O=C(CC12CC3CC(CC(C3)C1)C2)NCCNc1ccnc2cc(Cl)ccc12	0.238	0.383	0.0785	0.157	0.254	0.397
CCN(CC)CCCC(C)Nc1ccnc2cc(Cl)ccc12 (stereo not given) [CHLOROQUINE]				0.0164		0.53
CCCNC(=O)CC[C@@H](C)[C@H]1CC[C@H]2[C@@H]3[C@H](OC(C)=O)C[C@@H]4C[C@H](Nc5ccnc6cc(Cl)ccc56)CC[C@]4(C)[C@H]3C[C@H](OC(C)=O)[C@]12C	0.0995	0.367	0.0682	0.0982	0.209	1.85
O=C(NCCCNc1ccnc2cc(Cl)ccc12)C12CC3CC(CC(C3)C1)C2	0.525	0.787	0.214	0.37	0.878	1.36
CC(=O)O[C@@H]1CC[C@@]2(C)[C@@H](C1)C[C@@H](OC(C)=O)[C@@H]1[C@@H]2C[C@H](OC(C)=O)[C@]2(C)[C@@H]([C@H](C)CCCNc3ccnc4cc(Cl)ccc34)CC[C@@H]12	0.0301	0.0686	0.0158	0.0705	0.14	1.18
